Measurements reported in patent publication US10562920B2, “Ln(III) and Ga(III) metallacrown complexes” (The Regents of the University of Michigan, priority 2015, dated 2020).
Values joined by “and” are separate entries in the source; they are usually repeats but may differ in a detail not shown here. Identical values can stand only once. Each block holds one substance with its values, some of them ahead of it.

Tests used:
Type in all cases: physicochemical
[1] = Luminescence lifetimes under excitation at 355 nm; conditions: for τobs/μs: Ga8Ln2(shi)8, solid state
Experimental: (§1) Luminescence data were collected on samples placed into 2.4 mm i.d. quartz capillaries or quartz Suprasil cells. Emission and excitation spectra were measured on a Horiba-Jobin-YvonFluorolog 3 spectrofluorimeter equipped with either a visible photomultiplier tube (PMT) (220-800 nm, R928P; Hamamatsu), a NIR solid-state InGaAs detector cooled to 77 K (800-1600 nm, DSS-IGA020L; Jobin-Yvon), or NIR PMTs (950-1450 nm, H10330-45; 950-1650 nm, H10330-75; Hamamatsu). All spectra were corrected for instrumental functions. Luminescence lifetimes were determined under excitation at 355 nm provided by a Nd:YAG laser (YG 980; Quantel), while the signal was detected in the NIR by the aforementioned PMT (H10330-75). The output signal from the detectors was then fed to a 500 MHz bandpass digital oscilloscope (TDS 754C; Tektronix) and then transferred to a PC for treatment with Origin 8®. Luminescence lifetimes are averages of at least three independent measurements. Quantum yields were determined with a Fluorolog 3 spectrofluorimeter according to an absolute method using an integration sphere (GMP SA). Each sample was measured several times under slightly different experimental conditions. Estimated experimental error for quantum yields determination is 10%.

[2] = Ligand triplet state from phosphorescence of Gd3+ analogues; conditions: for ΔE (cm^−1), energy gap between ligand triplet state and Ln3+ emissive state: T1 = 22 170 cm^−1, Ga4Ln(shi)4
Experimental: as §1
Phosphorescence can be observed by recording the signal emitted from Ga4Gd(shi)4 in time-resolved mode in the solid state at 77K upon excitation at 350 nm and using a 200 μS delay after the excitation flash (FIG. 9). The 0-0 component of this band represents the energy level of the ligand's triplet state (T1=22,170 cm^−1, 451 nm) which is attributed to the energy level responsible for the main contribution of the transfer to the Ln^3+. The T1 level is sufficiently high in energy to populate the excited states of a wide range of visible and NIR-emitting Ln^3+.
Since the Ga8Ln2(shi)8 dimer compounds were insoluble in all solvents, the solid state photophysical data alone were collected. As with the Ga4Gd(shi)4 compound, the Ga8Gd2(shi)8 complex may be used to examine the ligand-based photophysical properties. […] The solid state ligand phosphorescence was obtained at 77 K using an excitation wavelength of 350 nm and a 100 μs delay (FIG. 11). The profile of the phosphorescence is similar to that of Ga4Gd(shi)4 (FIG. 9), which was expected, since both compounds are formed by the same framework ligand, H3shi. The 0-0 transition was determined to be located at 455 nm, or 21 978 cm^−1. This triplet state energy is slightly lower than that of the Ga4Gd(shi)4 compound (22 170 cm^−1), but still is sufficiently high in energy to sensitize visible (Dy^3+, Tb^3+, Sm^3+) and/or NIR emitting (Dy^3+, Sm^3+, Ho^3+, Yb^3+, Pr^3+, Nd^3+, Er^3+) lanthanides.

[3] = Quantum yields by absolute method using an integration sphere; conditions: for QLn^L/%: Ga6Ln(shi)9, solid state
Experimental: as §1

[4] = Emission spectra under ligand excitation at 350 nm; conditions: Ga8Ln2(shi)8, solid state
Experimental: as §1
Using an excitation wavelength of 350 nm, both visible and NIR emission arising from f-f transitions of different lanthanide ions can be observed (FIG. 13). In general, quantum yields are lower for Ga8Ln2(shi)8 MCs compared to […] (Table 3) except for Ho^3+ analogues which quantum yield is increased by 1.65 times reaching 3.3(1)·10^−3%.

[5] = Hydration number q from lifetimes in deuterated and protic solvents
Excerpt: One parameter that can be obtained from the recording of luminescence lifetimes is the hydration number q. […] This non-zero q value is particularly detrimental for the intensity of the luminescence (and to the corresponding quantum yield values) of NIR-emitting lanthanides since the overtones of high-energy vibrations of the solvent molecules create a route for non-radiative deactivation.

[6] = Ga8Ln2(shi)8, solid state, excitation 350 nm
[7] = from kCH3OH − kCD3OD, equations of footnotes b, c, e, g
[8] = solid state, 77 K, excitation 350 nm

Substance: [PrGa6(shi)7(Hshi)(H2shi)(C6H16N)3(C5H5N)2].4H2O [Ga6Pr(shi)9]
τ/μs ([1]; Ga6Ln(shi)9, solid state): 0.063(1) μs
QLn^L/% [3]: 3.7(2) · 10^−3%

Substance: [Ga8Tb2(shi)8(isophthalate)4(DMF)6].8DMF.H2O
τobs/μs [1]: 1410(1) μs
λem/nm [4]: 545 nm
QLn^L (%) (visible) [3, 6]: 31.2(2) %

Substance: [Ga4Eu(shi)4(C6H5CO2)4(C5H5N)(CH3OH)].C5H6N.C5H5N.CH3OH
ΔE (cm^−1), energy gap between ligand triplet state and Ln3+ emissive state [2]: 4 910 cm^−1
QLn^L (%) (visible) ([3]; Ga4Ln(shi)4, Solid): 1.59(4) · 10^−2%

Substance: [Ga4Dy(shi)4(C6H5CO2)4(C5H5N)(CH3OH)].C5H6N.C5H5N.CH3OH
τobs (μs) ([1]; Ga4Ln(shi)4, CD3OD): 25.5(7) μs
τobs (μs) ([1]; Ga4Ln(shi)4, CH3OH): 12.0(1) μs
τobs (μs) ([1]; Ga4Ln(shi)4, Solid): 21.2(2) μs
ΔE (cm^−1), energy gap between ligand triplet state and Ln3+ emissive state [2]: 1 070 cm^−1
q (hydration number) [5, 7]: 0.7^e
QLn^L (%) (NIR) ([3]; Ga4Ln(shi)4, CD3OD): 6.0(1) · 10^−2%
QLn^L (%) (visible) ([3]; Ga4Ln(shi)4, CD3OD): 0.78(1) %
QLn^L (%) (NIR) ([3]; Ga4Ln(shi)4, CH3OH): 2.4(1) · 10^−2%
QLn^L (%) (visible) ([3]; Ga4Ln(shi)4, CH3OH): 0.38(1) %
QLn^L (%) (NIR) ([3]; Ga4Ln(shi)4, Solid): 0.21(1) %
QLn^L (%) (visible) ([3]; Ga4Ln(shi)4, Solid): 2.10(1) %

Substance: [DyGa4(shi)4(H2shi)2(C5H5N)4(NO3)].(C5H5N)2 [Ga4Dyshi6]
τ/μs ([1]; solid state Ga4Ln(shi)6): 3.36(6) μs
QLn^L/% VIS (only Dy) ([3]; solid state Ga4Ln(shi)6, only Dy): 0.222(6) (only Dy) %
QLn^L/% VIS (total) ([3]; solid state Ga4Ln(shi)6, total): 0.308(8) (total) %

Substance: [NdGa6(shi)7(Hshi)(H2shi)(C6H16N)3(C5H5N)2].7H2O [Ga6Nd(shi)9]
τ/μs ([1]; Ga6Ln(shi)9, solid state): 0.71(1) μs
QLn^L/% [3]: 0.171(5) %

Substance: [YbGa4(shi)4(C6H5CO2)4(C5H5N)(CH3OH)].C5H6N.C5H5N.CH3OH [Ga4Yb(shi)4]
τobs (μs) ([1]; Ga4Ln(shi)4, CD3OD): 36.6(1) μs
τobs (μs) ([1]; Ga4Ln(shi)4, CH3OH): 2.06(4) μs
τobs (μs) ([1]; Ga4Ln(shi)4, Solid): 55.7(3) μs
ΔE (cm^−1), energy gap between ligand triplet state and Ln3+ emissive state [2]: 11 870 cm^−1
q (hydration number) [5, 7]: 0.7^g
QLn^L (%) (NIR) ([3]; Ga4Ln(shi)4, CD3OD): 4.29(1) %
QLn^L (%) (NIR) ([3]; Ga4Ln(shi)4, CH3OH): 0.26(1) %
QLn^L (%) (NIR) ([3]; Ga4Ln(shi)4, Solid): 5.88(2) %

Substance: [HoGa6(shi)7(Hshi)(H2shi)(C6H16N)3(C5H5N)2].8H2O [Ga6Ho(shi)9]
τ/μs ([1]; Ga6Ln(shi)9, solid state): 0.037(1) μs
QLn^L/% [3]: 1.1(2) · 10^−3%

Substance: [Ga4Tb(shi)4(C6H5CO2)4(C5H5N)(CH3OH)].C5H6N.C5H5N.CH3OH
τobs (μs) ([1]; Ga4Ln(shi)4, CD3OD): 1960(10) μs
τobs (μs) ([1]; Ga4Ln(shi)4, CH3OH): 1510(10) μs
τobs (μs) ([1]; Ga4Ln(shi)4, Solid): 1080(10) μs
ΔE (cm^−1), energy gap between ligand triplet state and Ln3+ emissive state [2]: 1 770 cm^−1
q (hydration number) [5, 7]: 1.2^c
q (hydration number) ([5]; qTb = 10.0 × (kCH3OH − kCD3OD − 0.06), footnote d): 0.9^d
QLn^L (%) (visible) ([3]; Ga4Ln(shi)4, CD3OD): 28.6(1) %
QLn^L (%) (visible) ([3]; Ga4Ln(shi)4, CH3OH): 23.7(3) %
QLn^L (%) (visible) ([3]; Ga4Ln(shi)4, Solid): 34.7% and 34.7(1) %

Other lines, results leading:

τobs (μs) ([1]; Ga4Ln(shi)4, Solid): 0.029(1) μs
ΔE (cm^−1), energy gap between ligand triplet state and Ln3+ emissive state [2]: 6 670 cm^−1
QLn^L (%) (NIR) ([3]; Ga4Ln(shi)4, Solid): 2.0(2)·10^−3%
Substance: [HoGa4(shi)4(C6H5CO2)4(C5H5N)(CH3OH)].C5H6N.C5H5N.CH3OH [Ga4Ho(shi)4]

τobs/μs [1]: 30.5(1) μs
λem/nm [4]: 980 nm
QLn^L (%) (NIR) [3, 6]: 2.43(6) %
Substance: [Ga8Yb2(shi)8(isophthalate)4(DMF)6].8DMF.3H2O

ligand triplet state (T1, 0-0 component of phosphorescence), wavelength [2, 8]: 455 nm
ligand triplet state energy (T1, 0-0 component of phosphorescence) [2, 8]: 21 978 cm^−1
Substance: [Ga8Gd2(shi)8(isophthalate)4(DMF)6].8DMF.H2O

τobs/μs [1]: 5.23(2) μs
λem/nm [4]: 1525 nm
QLn^L (%) (NIR) [3, 6]: 5.7(1) · 10^−3%
Substance: [Ga8Er2(shi)8(isophthalate)4(DMF)6].8DMF.2H2O

τ/μs ([1]; solid state Ga4Ln(shi)6): 0.220(3) μs
QLn^L/% NIR ([3]; solid state Ga4Ln(shi)6): 1.55(3) · 10^−3%
Substance: [ErGa4(shi)4(H2shi)2(C5H5N)5].(NO3).(C5H5N) [Ga4Ershi6]

τ/μs ([1]; Ga6Ln(shi)9, solid state): 70(1) μs
QLn^L/% [3]: 1.64(9) %
Substance: [SmGa6(shi)7(Hshi)(H2shi)(C6H16N)3(C5H5N)2].6H2O [Ga6Sm(shi)9]
